Source: PubChem BioAssay AID1963420 (Molecular Pharmacology Branch, DTP, NCI, 2024)

Tested on: 494315-158-R-J1-PDC complex spheroid growth, percent test/control
Experiment: Anticancer human tumor 494315-158-R-J1-PDC patient-derived soft tissue sarcoma cell line growth inhibition [Asc]
Conditions: for IC50: curve of first compound; for viability, T/C: stronger effect = lower value
Method in brief: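 Concentration series start at each agent's clinical Cmax, or at 10 microM when none is established, and drop in half-log steps; agents are applied alone or together to complex spheroids built with HUVEC and hMSC.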

[1] = second compound 0.03 µM, first compound 0.0316 µM
[2] = second compound 0.03 µM, first compound 0.1 µM
[3] = second compound 0.03 µM, first compound 0.316 µM
[4] = second compound 0.03 µM, first compound 1 µM
[5] = second compound 0.0949 µM, first compound 0.0316 µM
[6] = second compound 0.0949 µM, first compound 0.1 µM
[7] = second compound 0.0949 µM, first compound 0.316 µM
[8] = second compound 0.0949 µM, first compound 1 µM
[9] = second compound 0.3 µM, first compound 0.0316 µM
[10] = second compound 0.3 µM, first compound 0.1 µM
[11] = second compound 0.3 µM, first compound 0.316 µM
[12] = second compound 0.3 µM, first compound 1 µM
[13] = second compound 0.949 µM, first compound 0.0316 µM
[14] = second compound 0.949 µM, first compound 0.1 µM
[15] = second compound 0.949 µM, first compound 0.316 µM
[16] = second compound 0.949 µM, first compound 1 µM
[17] = second compound 3 µM, first compound 0.0316 µM
[18] = second compound 3 µM, first compound 0.1 µM
[19] = second compound 3 µM, first compound 0.316 µM
[20] = second compound 3 µM, first compound 1 µM
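Also: compound exposure lasted seven days after spheroids formed for three days.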

SMILES	IC50 (second compound 0.03 µM)	IC50 (second compound 0.0949 µM)	IC50 (second compound 0.3 µM)	IC50 (second compound 0.949 µM)	IC50 (second compound 3 µM)	viability, T/C [1]	viability, T/C [2]	viability, T/C [3]	viability, T/C [4]	viability, T/C [5]	viability, T/C [6]	viability, T/C [7]	viability, T/C [8]	viability, T/C [9]	viability, T/C [10]	viability, T/C [11]	viability, T/C [12]	viability, T/C [13]	viability, T/C [14]	viability, T/C [15]	further results
C=CC(=O)N1CCN(c2nc(=O)n(-c3c(C)ccnc3C(C)C)c3nc(-c4c(O)cccc4F)c(F)cc23)C(C)C1 (stereo not given) + CCN1C(C(=O)NC23CCC(C(=O)O)(CC2)CC3)C(c2cccc(Cl)c2F)C2(C(=O)Nc3cc(Cl)ccc32)C12CCCCC2	> 10000 nM	> 10000 nM	> 10000 nM	> 10000 nM	> 10000 nM	111%	97.2%	119%	128%	90.4%	96.8%	96.3%	110%	97.6%	119%	111%	119%	85.5%	114%	106%	viability, T/C (second compound 0.03 µM, first compound 3.16 µM): 128%; viability, T/C (second compound 0.03 µM, first compound 10 µM): 104%; viability, T/C (second compound 0.0949 µM, first compound 3.16 µM): 92.8%; viability, T/C (second compound 0.0949 µM, first compound 10 µM): 99.9%; viability, T/C (second compound 0.3 µM, first compound 3.16 µM): 114%; viability, T/C (second compound 0.3 µM, first compound 10 µM): 117%; viability, T/C [16]: 108%; viability, T/C (second compound 0.949 µM, first compound 3.16 µM): 130%; viability, T/C (second compound 0.949 µM, first compound 10 µM): 110%; viability, T/C [17]: 102%; viability, T/C [18]: 96.9%; viability, T/C [19]: 97.9%; viability, T/C [20]: 113%; viability, T/C (second compound 3 µM, first compound 3.16 µM): 126%; viability, T/C (second compound 3 µM, first compound 10 µM): 104%
COc1c(OCCCN2CCOCC2)ccc2c3n(c(=NC(=O)c4cnc(N)nc4)nc12)CCN3 + CCN1C(C(=O)NC23CCC(C(=O)O)(CC2)CC3)C(c2cccc(Cl)c2F)C2(C(=O)Nc3cc(Cl)ccc32)C12CCCCC2	45.8 nM	39 nM	43.6 nM	35.6 nM	46.2 nM	58.5%	30.8%	20.5%	15.4%	54%	30.4%	22%	15.4%	49.9%	38%	22.3%	16.7%	50.6%	30.7%	19.2%	viability, T/C (second compound 0.03 µM, first compound 0.00316 µM): 84%; viability, T/C (second compound 0.03 µM, first compound 0.01 µM): 80.5%; viability, T/C (second compound 0.0949 µM, first compound 0.00316 µM): 78.7%; viability, T/C (second compound 0.0949 µM, first compound 0.01 µM): 73.7%; viability, T/C (second compound 0.3 µM, first compound 0.00316 µM): 91.2%; viability, T/C (second compound 0.3 µM, first compound 0.01 µM): 90.4%; viability, T/C (second compound 0.949 µM, first compound 0.00316 µM): 93.3%; viability, T/C (second compound 0.949 µM, first compound 0.01 µM): 81.6%; viability, T/C [16]: 16.4%; viability, T/C (second compound 3 µM, first compound 0.00316 µM): 112%; viability, T/C (second compound 3 µM, first compound 0.01 µM): 86.5%; viability, T/C [17]: 59.6%; viability, T/C [18]: 32.1%; viability, T/C [19]: 22.6%; viability, T/C [20]: 15.2%
